Data as given in patent US8859559B2, “Substituted pyrazines and their use in the treatment of disease” (Boehringer Ingelheim International GmbH, priority 2011, dated 2014).

Target: T1, ENaC (Epithelial Sodium Channel) (Mus musculus, UniProt Q61180+Q9WU38+Q9WU39)
T1 construct: Mouse kidney M-1 cells were cultivated in DMEM; endogenous in cells; host or cells: Mouse kidney M-1 cells (dexamethasone-treated, on transwell filters)
T1 sequence (Q61180 1-699): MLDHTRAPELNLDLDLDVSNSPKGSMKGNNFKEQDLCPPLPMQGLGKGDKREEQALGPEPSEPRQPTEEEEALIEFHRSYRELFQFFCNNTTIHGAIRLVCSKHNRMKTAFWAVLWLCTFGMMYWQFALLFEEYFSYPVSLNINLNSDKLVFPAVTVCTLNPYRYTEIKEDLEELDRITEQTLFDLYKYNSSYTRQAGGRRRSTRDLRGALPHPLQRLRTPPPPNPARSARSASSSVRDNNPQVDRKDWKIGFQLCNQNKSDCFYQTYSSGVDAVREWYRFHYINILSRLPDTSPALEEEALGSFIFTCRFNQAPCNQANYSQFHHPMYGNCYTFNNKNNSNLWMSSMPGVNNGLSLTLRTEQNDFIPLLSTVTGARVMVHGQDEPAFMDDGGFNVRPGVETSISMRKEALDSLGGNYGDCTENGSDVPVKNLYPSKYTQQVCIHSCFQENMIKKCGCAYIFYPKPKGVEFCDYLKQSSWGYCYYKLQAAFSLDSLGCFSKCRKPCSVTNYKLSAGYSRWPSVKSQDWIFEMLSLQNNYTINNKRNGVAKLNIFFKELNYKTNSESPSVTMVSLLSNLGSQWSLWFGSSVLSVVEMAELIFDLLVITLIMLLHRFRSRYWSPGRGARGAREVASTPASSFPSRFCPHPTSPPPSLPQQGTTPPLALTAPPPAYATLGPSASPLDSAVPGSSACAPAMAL
T1 sequence (Q9WU38 1-638): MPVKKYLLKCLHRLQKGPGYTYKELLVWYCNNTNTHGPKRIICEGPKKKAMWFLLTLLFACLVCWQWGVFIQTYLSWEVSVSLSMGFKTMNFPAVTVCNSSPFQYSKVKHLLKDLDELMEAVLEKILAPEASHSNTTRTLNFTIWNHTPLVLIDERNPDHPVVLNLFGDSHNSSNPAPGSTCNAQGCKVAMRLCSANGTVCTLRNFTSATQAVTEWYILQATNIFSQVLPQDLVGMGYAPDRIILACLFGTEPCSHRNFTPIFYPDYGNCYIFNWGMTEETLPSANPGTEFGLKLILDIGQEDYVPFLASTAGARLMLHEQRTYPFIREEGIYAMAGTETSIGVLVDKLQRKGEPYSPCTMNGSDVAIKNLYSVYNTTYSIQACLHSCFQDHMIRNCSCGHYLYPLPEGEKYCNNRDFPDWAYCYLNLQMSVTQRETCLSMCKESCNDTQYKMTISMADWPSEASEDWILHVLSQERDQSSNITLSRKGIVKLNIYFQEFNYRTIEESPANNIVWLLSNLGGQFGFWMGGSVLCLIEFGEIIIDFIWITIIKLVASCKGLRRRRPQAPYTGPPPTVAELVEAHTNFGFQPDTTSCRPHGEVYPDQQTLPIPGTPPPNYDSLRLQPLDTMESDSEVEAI
T1 sequence (Q9WU39 1-655): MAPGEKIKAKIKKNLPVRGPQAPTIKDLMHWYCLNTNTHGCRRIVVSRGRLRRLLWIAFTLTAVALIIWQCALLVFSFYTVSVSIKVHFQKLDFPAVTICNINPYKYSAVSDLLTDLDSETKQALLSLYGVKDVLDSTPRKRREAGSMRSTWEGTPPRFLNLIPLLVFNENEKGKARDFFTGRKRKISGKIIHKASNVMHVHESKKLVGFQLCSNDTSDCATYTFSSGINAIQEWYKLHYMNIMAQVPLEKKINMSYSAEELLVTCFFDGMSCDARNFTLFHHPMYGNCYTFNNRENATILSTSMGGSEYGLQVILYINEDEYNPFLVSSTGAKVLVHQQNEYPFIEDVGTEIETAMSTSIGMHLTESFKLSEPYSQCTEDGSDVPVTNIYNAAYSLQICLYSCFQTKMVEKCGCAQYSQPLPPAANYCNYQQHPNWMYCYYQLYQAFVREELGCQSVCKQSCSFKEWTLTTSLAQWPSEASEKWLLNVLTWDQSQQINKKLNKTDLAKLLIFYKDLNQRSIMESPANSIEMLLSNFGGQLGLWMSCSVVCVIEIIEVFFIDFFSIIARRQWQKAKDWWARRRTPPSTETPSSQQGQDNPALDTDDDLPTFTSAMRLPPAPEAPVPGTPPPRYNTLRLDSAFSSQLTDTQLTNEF
Assay: Ussing chamber: inhibition of amiloride sensitive short circuit current (I_sc) in M-1 cells
Format: cell-based
Conditions: mouse kidney M-1 cells
Protocol: Mouse kidney M-1 cells were cultivated in DMEM containing 5% FCS and 5 μM dexamethasone for 10 to 12 days on polyester transwell filters. Filters were inserted into a teflon-coated well-plate which fit into the in-house ussing chamber system. Prior to measurement the medium of M-1 cells was replaced with Caco-2 transport buffer (Invitrogen, Germany). During measurements, the Ussing chamber temperature was kept at 37° C. Short circuit currents (I_sc) were measured in the voltage-clamp mode using an in-house built amplifier (Boehringer Ingelheim, Biberach) with the software package Lab View for data acquisition and analysis. The transepithelial electrical resistance (TEER) was determined by the application of voltage steps of ±5 mV every 5 sec. Compounds were administered at a final concentration of 3 μM or at increasing concentrations (1-3-10 μM) to the apical solution. At the end of each experiment the amiloride sensitive I_SC was measured by adding 3 μM amiloride to the apical compartment. Results are expressed as inhibition in percent of the amiloride effect or as IC50. With the example compounds given above, the following IC50 values were determined in the Ussing Chamber assay: […]

Structure (SMILES) | IC50 [nM]
CN(Cc1cn(-c2ccc(CN3CCC(NC(N)=NC(=O)c4nc(Cl)c(N)nc4N)CC3)cc2)nn1)C(=O)CCNCCOCCOCCOCCOC(c1ccccc1)(c1ccccc1)c1ccccc1 [Example 3.20] | 1
N/C(=N\C(=O)c1nc(Cl)c(N)nc1N)NC1CCN(Cc2ccccc2)CC1 [Example 1.25] | 6
COC(=O)c1ccc(CN2CCC(N/C(N)=N/C(=O)c3nc(Cl)c(N)nc3N)CC2)c(Cl)c1 [Example 1.12] | 4
C#Cc1cccc(CN2CCC(NC(N)=NC(=O)c3nc(Cl)c(N)nc3N)CC2)c1 [Example 1.32] | 7
CC(=O)N1CCN(C(=O)CCc2cn(CCc3ccc(CN4CCC(NC(N)=NC(=O)c5nc(Cl)c(N)nc5N)CC4)cc3)nn2)CC1 [Example 3.44] | 16
[N-]=[N+]=Nc1ccc(CN2CCC(N/C(N)=N/C(=O)c3nc(Cl)c(N)nc3N)CC2)cc1 [Example 1.10] | 6
N#Cc1ccc(OCCN2CCC(NC(N)=NC(=O)c3nc(Cl)c(N)nc3N)CC2)cc1 [Example 1.21] | 11
NC(=NC(=O)c1nc(Cl)c(N)nc1N)NC1CCN(Cc2ccc(-n3cc(CCC(=O)N(CCOCCOCCO)CCOCCOCCO)nn3)cc2)CC1 [Example 3.16] | 18
NC(=NC(=O)c1nc(Cl)c(N)nc1N)NC1CCN(Cc2ccc(C(=O)NCCOCCOCCOCCn3cc(COCCO)nn3)cc2)CC1 [Example 3.8] | 19
NC(=NC(=O)c1nc(Cl)c(N)nc1N)NC1CCN(Cc2ccc(-c3cn(CCOCCOCCOCCOCCOCCO)nn3)cc2)CC1 [Example 3.27] | 1
NC(=NC(=O)c1nc(Cl)c(N)nc1N)NC1CCN(Cc2ccc(-n3cc(CCC(=O)O)nn3)cc2)CC1 [Example 3.13] | 57
CC(=O)Oc1ccc(CN2CCC(N/C(N)=N/C(=O)c3nc(Cl)c(N)nc3N)CC2)cc1 [Example 1.41] | 7
NC(=NC(=O)c1nc(Cl)c(N)nc1N)NC1CCN(Cc2ccc(CCn3cc(CCC(=O)N4CCOCC4)nn3)cc2)CC1 [Example 3.43] | 15
NC(=NC(=O)c1nc(Cl)c(N)nc1N)NC1CCN(Cc2ccc(-c3cn(CCOCCOCCOCCO)nn3)cc2)CC1 [Example 3.26] | 8
N/C(=N\C(=O)c1nc(Cl)c(N)nc1N)NC1CCN(Cc2ccc(-c3cn(CCOCCOCCO)nn3)cc2)CC1 [Example 5.4] | 3
COC(=O)COc1ccc(CN2CCC(NC(N)=NC(=O)c3nc(Cl)c(N)nc3N)CC2)cc1OCC(=O)OC [Example 1.53] | 7
CN(Cc1cn(-c2ccc(CN3CCC(NC(N)=NC(=O)c4nc(Cl)c(N)nc4N)CC3)cc2)nn1)C(=O)CCNCCOCCOCCOCCO [Example 5.3] | 2
NCc1ccc(CN2CCC(N/C(N)=N/C(=O)c3nc(Cl)c(N)nc3N)CC2)cc1 [Example 9.1] | 7
COc1cc(CN2CCC(NC(N)=NC(=O)c3nc(Cl)c(N)nc3N)CC2)cc(C(=O)O)c1 [Example 1.64] | 17
COC(=O)CCc1ccc(CN2CCC(NC(N)=NC(=O)c3nc(Cl)c(N)nc3N)CC2)cc1 [Example 1.45] | 10
NC(=NC(=O)c1nc(Cl)c(N)nc1N)NC1CCN(Cc2ccc(C(=O)NCCOCCOCCOCCn3cc(COC[B-](F)(F)F)nn3)cc2)CC1 [Example 3.9] | 20

Structure (SMILES) | IC50 [nM]
CN(C)CCNC(=O)c1ccc(CN2CCC(NC(N)=NC(=O)c3nc(Cl)c(N)nc3N)CC2)cc1 [Example 1.14] | 1
NCCOCCOCCNC(=O)c1ccc(CN2CCC(NC(N)=NC(=O)c3nc(Cl)c(N)nc3N)CC2)cc1 [Example 1.47] | 3
CN(Cc1cn(CCc2ccc(CN3CCC(NC(N)=NC(=O)c4nc(Cl)c(N)nc4N)CC3)cc2)nn1)C(=O)CCNCCOCCOCCOCCOC(c1ccccc1)(c1ccccc1)c1ccccc1 [Example 3.6] | 1
CC(C)(C)OC(=O)c1ccc(CN2CCC[C@@H](NC(N)=NC(=O)c3nc(Cl)c(N)nc3N)C2)cc1 [Example 1.61] | 47
NC(=NC(=O)c1nc(Cl)c(N)nc1N)NC1CCN(Cc2ccc(C(=O)OCCCCc3cn(CCOCCOCCOCCO)nn3)cc2)CC1 [Example 3.42] | 10
NC(=NC(=O)c1nc(Cl)c(N)nc1N)NC1CCN(Cc2cccc(-c3cn(CCOCCOCCOCCNC(=O)c4cc(OCCOCCOCCOCCO)cc(OCCOCCOCCOCCO)c4)nn3)c2)CC1 [Example 5.12] | 62
NC(=NC(=O)c1nc(Cl)c(N)nc1N)N[C@H]1CCN(Cc2ccc(OCC(=O)O)cc2)C1 [Example 8.16] | 31
COC(=O)COc1ccc(CN2CC(NC(N)=NC(=O)c3nc(Cl)c(N)nc3N)C2)cc1 [Example 1.66] | 261
NC(=NC(=O)c1nc(Cl)c(N)nc1N)NC1CCN(Cc2ccc(CCc3cccnc3)cc2)CC1 [Example 1.57] | 5
NC(N)=NCc1ccc(CN2CCC(N/C(N)=N/C(=O)c3nc(Cl)c(N)nc3N)CC2)cc1 [Example 10.1] | 3
N/C(=N\C(=O)c1nc(Cl)c(N)nc1N)NC1CCN(C(C(=O)O)c2ccccc2)CC1 (stereo not drawn) [Example 8.1] | 136
NC(=NC(=O)c1nc(Cl)c(N)nc1N)NC1CCN(Cc2ccccc2)C1 (stereo not drawn) [Example 1.26] | 20
NC(=NC(=O)c1nc(Cl)c(N)nc1N)NC1CCN(Cc2ccc(C(=O)NCCOCCOCCO)cc2)CC1 [Example 1.39] | 6
N/C(=N\C(=O)c1nc(Cl)c(N)nc1N)NC1CCN(Cc2ccc(C(=O)NCCOCCO)cc2)CC1 [Example 1.54] | 4
C#CCCCCOC(=O)c1ccc(CN2CCC(NC(N)=NC(=O)c3nc(Cl)c(N)nc3N)CC2)cc1 [Example 1.9] | 8
N=C(N)c1ccc(CN2CCC(NC(N)=NC(=O)c3nc(Cl)c(N)nc3N)CC2)cc1 [Example 1.55] | 2
C#CCOc1ccc(CN2CCC(NC(N)=NC(=O)c3nc(Cl)c(N)nc3N)CC2)cc1 [Example 1.4] | 4
NC(=NC(=O)c1nc(Cl)c(N)nc1N)NC1CCN(Cc2cccc(C(=O)NCCOCCO)c2)CC1 [Example 1.65] | 4
NC(=NC(=O)c1nc(Cl)c(N)nc1N)NC1CCN(Cc2ccc(-c3cn(CCOCCOCCOCCNC(=O)c4cc(OCCOCCOCCOCCO)cc(OCCOCCOCCOCCO)c4)nn3)cc2)CC1 [Example 5.5] | 109
NC(=NC(=O)c1nc(Cl)c(N)nc1N)NC1CCN(Cc2cccc(CC(=O)O)c2)CC1 [Example 8.10] | 24
CN(Cc1cn(-c2ccc(CN3CCC(NC(N)=NC(=O)c4nc(Cl)c(N)nc4N)CC3)cc2)nn1)C(=O)CCNC(=O)OC(C)(C)C [Example 3.18] | 5
